Assay: cn = amount concentration of the nth substance listed, in mol/dm3
Details: 101 kPa, Liquid, Alternating current cell with electrodes

CCCCCCn1cc[n+](C)c1.[Br-] [3-hexyl-1-methyl-1H-imidazolium bromide] + O
Details | molar conductivity [S·m2/mol]
298.15 K, c1 = 0.0004233 | 0.0104
298.15 K, c1 = 0.0008352 | 0.0103
298.15 K, c1 = 0.001327 | 0.0102
298.15 K, c1 = 0.001785 | 0.0101
298.15 K, c1 = 0.002231 | 0.0101
298.15 K, c1 = 0.003203 | 0.00996
298.15 K, c1 = 0.004124 | 0.00983
298.15 K, c1 = 0.005143 | 0.00974
298.15 K, c1 = 0.006841 | 0.00955
298.15 K, c1 = 0.008495 | 0.00941
298.15 K, c1 = 0.01022 | 0.00923
298.15 K, c1 = 0.01211 | 0.00905
298.15 K, c1 = 0.01464 | 0.0088
308.15 K, c1 = 0.0004492 | 0.0108
308.15 K, c1 = 0.001027 | 0.0106
308.15 K, c1 = 0.001581 | 0.0105
308.15 K, c1 = 0.002065 | 0.0104
308.15 K, c1 = 0.002724 | 0.0104
308.15 K, c1 = 0.003914 | 0.0102
308.15 K, c1 = 0.005116 | 0.00999
308.15 K, c1 = 0.006411 | 0.00987
308.15 K, c1 = 0.008535 | 0.00965
308.15 K, c1 = 0.01052 | 0.00946
308.15 K, c1 = 0.0126 | 0.00927
308.15 K, c1 = 0.01458 | 0.00912
318.15 K, c1 = 0.0004492 | 0.011
318.15 K, c1 = 0.001027 | 0.0109
318.15 K, c1 = 0.001581 | 0.0108
318.15 K, c1 = 0.002065 | 0.0107
318.15 K, c1 = 0.002724 | 0.0106
318.15 K, c1 = 0.003914 | 0.0104
318.15 K, c1 = 0.005116 | 0.0103
318.15 K, c1 = 0.006411 | 0.0102
318.15 K, c1 = 0.008535 | 0.00993
318.15 K, c1 = 0.01052 | 0.00971
318.15 K, c1 = 0.0126 | 0.00953
318.15 K, c1 = 0.01458 | 0.00935
328.15 K, c1 = 0.0005148 | 0.0114
328.15 K, c1 = 0.001041 | 0.0113
328.15 K, c1 = 0.001608 | 0.0111
328.15 K, c1 = 0.002215 | 0.011
328.15 K, c1 = 0.002695 | 0.0109
328.15 K, c1 = 0.003725 | 0.0107
328.15 K, c1 = 0.004772 | 0.0105
328.15 K, c1 = 0.005836 | 0.0103
328.15 K, c1 = 0.007462 | 0.0102
328.15 K, c1 = 0.00911 | 0.00996
328.15 K, c1 = 0.0107 | 0.00985
328.15 K, c1 = 0.01243 | 0.00963
328.15 K, c1 = 0.0147 | 0.00945

Reference: the NIST ThermoML archive (doi:10.1016/j.fluid.2009.08.011)
